In paper PMC6518372, “An enzymatically stable GIP/xenin hybrid peptide restores GIP sensitivity, enhances beta cell function and improves glucose homeostasis in high-fat-fed mice” (Diabetologia, 2016):
Where a SMILES comes first, the peptide text is derived from it. [ ]: non-standard residue; d: D form.

Columns and labels:
purified porcine DPP-4 = purified porcine DPP-4 (Sus scrofa, UniProt P22411); assay: DPP-4 degradation / in vitro DPP-4 half-life; details: 20 μg peptide, 5 mU purified DPP-4, up to 12 h, HPLC
Experimental: Peptide (20 μg) DPP-4 degradation profiles (5 μl purified DPP-4, 5 mU; Sigma-Aldrich, UK) were assessed as described previously.
For calculation of experimental molecular masses, peptide samples (1 µg) were mixed with α-cyano-4-hydroxycinnamic acid (1 µg) and applied to a Voyager-DE BioSpectrometry Workstation and mass-to-charge (m/z) ratio verses peak intensity recorded by MALDI-TOF mass spectrometry. DPP-4 half-life was assessed by incubating peptides (37°C in 50 mmol/L TEA-HCl; pH 7.8) with 5 mU purified porcine DPP-4 for 0, 1, 2, 4, 8 and 12 h. Degradation profiles were obtained using rp-HPLC analysis and HPLC peak area data used to calculate percentage intact peptide remaining at each time point.

lean control mice [1] = assay: Acute cumulative food intake in lean mice; format: in vivo, mouse; details: 250 nmol/kg i.p., 18 h fasted lean mice, 120 min post injection, vs saline
Experimental: (§1) Animals Acute animal studies were conducted in male NIH Swiss mice (12-14 weeks old, Harlan Ltd, UK) maintained on a standard rodent maintenance diet (10% fat, 30% protein and 60% carbohydrate, Trouw Nutrition, UK). Prior to commencement of longer term studies, all animals, except lean controls that continued on rodent maintenance diet, were maintained on a high-fat diet (45% fat, 35% carbohydrate and 20% protein, Special Diet Services, UK) for 12 weeks. This diet […]
(§2) individually in an air-conditioned room at 22 ± 2 °C with a 12 h light:12 h dark cycle and had free access to food and water. Animal experiments were carried out in accordance with the UK Animals (Scientific Procedures) Act 1986.
(§3) Acute in vivo effects in lean mice For food intake studies, fasted (18 h) mice were given intraperitoneal (i.p) injections of peptides at a dose of 25, 100 or 250 nmol/kg bw. Mice were then allowed free access to normal chow for 180 mins and cumulative food intake measured. For glucose homeostasis and […]

lean control mice [2] = assay: Persistent glucose-lowering and insulin-releasing effects, peptide 4 h before glucose load; format: in vivo, mouse; details: 25 nmol/kg injected 4 h before i.p. glucose load 18 mmol/kg, non-fasted lean mice, vs saline
Experimental: (§4) Specific information on acute feeding, glucose homeostasis and insulin-secretory studies is given in ESM Methods. To assess the impact of GIP and neurotensin receptor activation on (DAla^2)GIP/xenin-8-Gln-induced glucose-lowering and insulin-secretory actions in mice, (DAla^2)GIP/xenin-8-Gln was administered by i.p. injection (25 nmol/kg body weight) in combination with glucose (18 mmol/kg) in the absence and presence of GIP(6-30)Cex-K^40[Pal] and SR142948A (both at 25 nmol/kg), and glucose and insulin were measured as described above. In a final series of experiments, test peptides (25 nmol/kg) or saline vehicle (0.9% wt/vol. NaCl) were injected 4 h before a glucose load (18 mmol/kg) in non-fasted mice and blood glucose and plasma insulin measured as above.

BRIN-BD11 cells [3] = assay: Intracellular Ca2+ in BRIN-BD11 cells (FLIPR Calcium 5); format: cell-based, rat; details: peptide 10^−6 mol/l, 5.6 mmol/l glucose, 5 min, AUC 0–300 s
Experimental: (§5) BRIN-BD11 cells were used to assess the insulin-releasing activity of test peptides, as described previously. This hybrid cell line (ECACC 10033003) was originally generated in-house by electrofusion of a primary culture of New England Deaconess Hospital (NEDH) rat pancreatic islets with RINm5F (a cell line derived from an NEDH rat insulinoma), and has been mycoplasma eradicated. For details of experimental conditions please see ESM Methods. Insulin was measured by radioimmunoassay. We assessed the impact of GIP and neurotensin receptors on (DAla^2)GIP/xenin-8-Gln-induced insulin secretion in BRIN-BD11 cells. Cells were incubated in 5.6 mmol/l glucose with (DAla^2)GIP/xenin-8-Gln (10^−6 mol/l) alone or in combination with the GIP receptor antagonist GIP(6-30)Cex-K^40[Pal] [32] (where Pal is palmitate) or the neurotensin receptor antagonist SR142948A (Sigma, Poole, UK), and insulin secretion determined as described above. In addition, to determine mechanisms, intracellular Ca^2+ was also measured in BRIN-BD11 cells following treatment with test peptides (10^−6 mol/l), using a Flexstation scanning fluorometer (FLIPR Calcium 5 assay kit; Molecular Devices, Sunnyvale, CA, USA), as described previously.

BRIN-BD11 cells [4] = assay: In vitro insulin secretion from BRIN-BD11 cells; format: cell-based, rat; details: peptide 10^−6 mol/l, antagonist 10^−6 mol/l, 5.6 mmol/l glucose, 20 min
Experimental: as §5
In vitro insulin release studies Cells were seeded at a density of 150,000 cells/well in 24-well plates (Nunc, Roskilde, Denmark) and allowed to attach overnight at 37 °C. Culture medium was removed and cells were pre-incubated in Krebs–Ringer bicarbonate buffer (containing 0.5% (w/v) BSA, pH 7.4) supplemented with 1.1 mmol/l glucose for 40 min at 37 °C. Following the pre-incubation, experiments (n=8) were performed in presence of glucose (5.6 or 16.7 mmol/l) with a […]
incubations, aliquots of assay buffer were collected from each well and stored at -20 °C prior to […]
Acute in vivo effects in lean mice For food intake studies, fasted (18 h) mice were given intraperitoneal (i.p) injections of peptides at a dose of 25, 100 or 250 nmol/kg bw. Mice were then allowed free access to normal chow for 180 mins and cumulative food intake measured. […]

lean control mice [5] = assay: Acute glucose-lowering and insulin-releasing effects in lean mice; format: in vivo, mouse; details: 25 nmol/kg i.p. with glucose 18 mmol/kg, non-fasted lean mice, vs glucose alone
Experimental: as §4, with “as above. […]” for “as above.”
as §1, §2, §3

Sequence of purified porcine DPP-4 (P22411 whole entry): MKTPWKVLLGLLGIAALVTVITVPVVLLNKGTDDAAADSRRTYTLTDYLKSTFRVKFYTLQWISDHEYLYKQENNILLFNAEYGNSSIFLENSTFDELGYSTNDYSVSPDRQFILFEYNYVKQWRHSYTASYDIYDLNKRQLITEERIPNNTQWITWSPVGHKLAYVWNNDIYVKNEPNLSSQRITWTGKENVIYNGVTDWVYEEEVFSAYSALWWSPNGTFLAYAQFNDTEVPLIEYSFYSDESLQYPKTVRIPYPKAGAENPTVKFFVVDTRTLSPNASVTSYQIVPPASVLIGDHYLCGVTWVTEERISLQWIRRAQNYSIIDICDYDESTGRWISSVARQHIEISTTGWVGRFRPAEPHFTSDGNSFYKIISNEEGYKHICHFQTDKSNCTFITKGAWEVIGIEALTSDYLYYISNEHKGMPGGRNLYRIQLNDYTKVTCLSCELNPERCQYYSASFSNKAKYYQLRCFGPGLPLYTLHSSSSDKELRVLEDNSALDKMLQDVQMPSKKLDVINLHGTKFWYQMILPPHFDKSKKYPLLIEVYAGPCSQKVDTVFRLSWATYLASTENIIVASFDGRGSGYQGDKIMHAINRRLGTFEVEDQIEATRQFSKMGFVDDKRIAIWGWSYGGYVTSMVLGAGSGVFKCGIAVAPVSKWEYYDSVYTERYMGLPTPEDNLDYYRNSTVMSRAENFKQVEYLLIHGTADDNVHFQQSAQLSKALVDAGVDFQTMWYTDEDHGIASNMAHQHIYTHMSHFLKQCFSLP

Compound | Stability when incubated in the presence of DPP-4 (purified porcine DPP-4) | Cumulative food intake (lean control mice [1]) | Overall AUC for blood glucose after glucose challenge (lean control mice [2]) | Plasma insulin AUC after glucose challenge (lean control mice [2]) | Effect on intracellular Ca^2+ concentrations (BRIN-BD11 cells [3]) | Peptide-mediated insulin secretion in presence of neurotensin receptor antagonist SR142948A (BRIN-BD11 cells [4]) | Blood glucose (lean control mice [5]; 30 min post injection) | Overall AUC blood glucose (lean control mice [5])
CC[C@H](C)[C@H](NC(=O)[C@H](CO)NC(=O)[C@H](Cc1ccc(O)cc1)NC(=O)[C@H](CC(=O)O)NC(=O)[C@H](CO)NC(=O)[C@@H](NC(=O)[C@H](Cc1ccccc1)NC(=O)[C@@H](NC(=O)CNC(=O)[C@H](CCC(=O)O)NC(=O)[C@@H](C)NC(=O)[C@@H](N)Cc1ccc(O)cc1)[C@@H](C)O)[C@@H](C)CC)C(=O)N[C@@H](C)C(=O)N[C@@H](CCSC)C(=O)N[C@@H](Cc1c[nH]cn1)C(=O)N1CCC[C@H]1C(=O)N[C@@H](CCC(N)=O)C(=O)N[C@@H](CCC(N)=O)C(=O)N1CCC[C@H]1C(=O)N[C@@H](Cc1c[nH]c2ccccc12)C(=O)N[C@H](C(=O)N[C@@H](CC(C)C)C(=O)O)[C@@H](C)CC [(DAla^2)GIP/xenin-8-Gln] (H-Y[dA]EGTFISDYSIAMHPQQPWIL-OH) | remained fully intact |  |  |  |  |  |  | 
CC[C@H](C)[C@H](NC(=O)[C@H](Cc1c[nH]c2ccccc12)NC(=O)[C@@H]1CCCN1C(=O)[C@H](CCC(N)=O)NC(=O)[C@H](CCC(N)=O)NC(=O)[C@@H]1CCCN1C(=O)[C@@H](N)Cc1c[nH]cn1)C(=O)N[C@@H](CC(C)C)C(=O)O [xenin-8-Gln] (H-HPQQPWIL-OH) |  | significant (p < 0.05) reductions in food intake | devoid of glucose-lowering or insulin-releasing effects | devoid of glucose-lowering or insulin-releasing effects | Neither, (DAla^2)GIP, xenin-8-Gln nor (DAla^2)GIP/xenin-8-Gln had any effect | similar, but less prominent, effect | significantly (p < 0.05) lowered blood glucose values | significantly (p < 0.05) decreased overall AUC blood glucose values
